# Experimental data taken from patent US20240285615A1, “MEDICAMENTS COMPRISING GLYCOSIDASE INHIBITORS” (priority 2021, published 2024).
# Like-named read-outs stand apart in the source and are kept apart here.
# Tests used:
# [1] = Phase 1 Part 1a: single rising oral doses, fasted, plasma pharmacokinetics; assay type: in vivo, human; details: for AUC(0-inf) / Cmax / Tmax / half-life: human, plasma
# Excerpt: A Randomized, Double-Blind, Placebo-Controlled, Phase 1 Study to Assess the Safety, Tolerability, Pharmacokinetics and Food Effect of Single and Multiple Doses of Orally Administered Compound of Formula (I) in Healthy Adult and Elderly Subjects The study was a single-centre, randomized, placebo-controlled single- and multiple ascending dose study in healthy male and female (no childbearing potential) volunteers aged 18-80 years. Study objectives were safety, tolerability, food effect and pharmacokinetics. Following identification of safe and tolerable single doses in healthy male subjects aged 18-55 years, separate cohorts were dosed to assess food effect. Furthermore, multiple-dose safety, tolerability, pharmacokinetics, CSF drug levels and pharmacodynamics were assessed in elderly (age 55-80 years) male or healthy non-child-bearing potential female volunteers. [table] The single-dose pharmacokinetics of seven, ascending, dose levels of compound of Formula (I) (20, 40, 80, 160, 300, 600 and 1000 mg of compound (I) fasted state) were evaluated in part 1a of a randomized, placebo-controlled, time lagged, parallel/crossover group study in healthy young volunteers Compound (I) pharmacokinetic data were measured in plasma and in urine up to 72 hours post dose.
# [2] = system: acute glaucoma-induced I/R injury; experiment: In vivo treatment efficacy on acute glaucoma induced ischemia-reperfusion (I/R) model; design: species or system Sprague-Dawley (SD) rats; details: SD rats, oral, 7 days after I/R injury
# Protocol: The efficacy of compound of formula (I) is evaluated in the acute glaucoma animal model. Eight-week-old male Sprague-Dawley (SD) rats weighing 250 to 300 g are housed in a temperature- and humidity-controlled animal room under a 12-hour light/12-hour dark cycle, with food and water provided ad libitum. Before any experiment, animals are allowed for one week of acclimatization. The SD rats are randomly allocated to control group and/or treatment groups. Compound of formula (I) is administrated by oral (gavage) route. Two protocols are considered, where the treatment is initiated 24 hours before or 1 hour after the induction of acute glaucoma-induced I/R injury.
# To induce I/R injury, a general anesthesia is induced via i.p. injection of a mixture of 50 mg/kg of ketamine and 2 mg/kg of xylazine. Corneal analgesia is administered using a drop of topical 0.5% proparacaine hydrochloride ophthalmic solution, and pupillary dilatation is maintained with 0.5% tropicamide and 0.5% phenylephrine. After analgesia and dilation of the pupil, the anterior chamber of the left eye is cannulated with a 30-gauge needle connected to a saline reservoir at 150 cm above the eye, leading to a high intraocular pressure (IOP) of 110 mm Hg. The presence of retinal ischemia is examined by the fundus. The cannulation is lasting 60 minutes. After removing the infusion needle from the anterior chamber, the IOP returns to normal. Antibiotic ophthalmic gel with tobramycin is topically applied to the eye before and after the procedure. The rats are sacrificed 7 days after I/R injury to observe the long-term effect of the compound of formula (I) treatment. After collection, the thickness of the retinas is examined by histological staining (Mayer P, (1896), Mitt. zool. Stn. Neapel., 12, 303). The number of retinal ganglion cells is also quantified by immunohistochemistry. Finally, the function of the retina is also evaluated 7 days after I/R injury by electroretinography (ERG).
# [3] = system: patients with probable PSP Richardson's syndrome; experiment: Phase 2 clinical trial in progressive supranuclear palsy (Example 6); assay type: in vivo, human; details: 300 mg or 150 mg TID PO, clinical study protocol
# Excerpt: CLINICAL STUDY PROTOCOL: A Randomized, Double-blind, Placebo-Controlled Study to Evaluate the Efficacy and Safety of compound of formula (I) for the Treatment of Progressive Supranuclear Palsy
# PRIMARY OBJECTIVE: To evaluate the safety and tolerability of two different doses of compound (I) compared with placebo for the treatment of PSP
# STUDY DESIGN: This is a randomized, multi-centre, double-blind, placebo-controlled trial to study the safety and tolerability of compound (I) in patients with probable PSP Richardson's syndrome. Approximately 40 patients (40 to 85 years of age, inclusive) are randomized in a 2:1:1 ratio to 300 mg or 150 mg or placebo TID PO with meals.
# For all subjects, a screening visit is performed up to 6 weeks prior to dosing to determine eligibility. Eligible patients take investigational product (compound (I) or placebo) orally daily for about 12 weeks. Safety and tolerability data are collected at required visits to the study site. In addition, an “at home visit” for safety assessment and blood draw is organized. An open-label extension period of 52 weeks takes place upon completion of the initial double-blind treatment period. […]
# PRIMARY SAFETY ENDPOINT: Frequency of treatment-emergent adverse events recorded in the three treatment arms at Week 12.
# [4] = single oral dose 20 mg, fasted, healthy male subjects, arithmetic mean
# [5] = single oral dose 40 mg, fasted, healthy male subjects, arithmetic mean
# [6] = single oral dose 80 mg, fasted, healthy male subjects, arithmetic mean
# [7] = single oral dose 160 mg, fasted, healthy male subjects, arithmetic mean
# [8] = single oral dose 300 mg, fasted, healthy male subjects, arithmetic mean
# [9] = single oral dose 600 mg, fasted, healthy male subjects, arithmetic mean
# [10] = single oral dose 1000 mg, fasted, healthy male subjects, arithmetic mean
smiles,measurement,setting,value
CC(=O)Nc1nnc(N2CCN([C@@H](C)c3ccc4c(c3)OCO4)CC2)s1 [Compound (I)],deviation of dose normalized AUC,"[1]; AUC over 24 hours, dose levels 300, 600 and 1000 mg",≤ 10%
same,AUC(0-inf),[1]; [4],473 ng·h/mL
same,Cmax,[1]; [4],227 ng/mL
same,Tmax,"[1]; single oral dose 20 mg, fasted, healthy male subjects, median (min, max), read-out: Tmax",0.5 h
same,AUC(0-inf),[1]; [5],1160 ng·h/mL
same,Cmax,[1]; [5],468 ng/mL
same,Tmax,"[1]; single oral dose 40 mg, fasted, healthy male subjects, median (min, max), read-out: Tmax",1 h
same,AUC(0-inf),[1]; [6],3270 ng·h/mL
same,Cmax,[1]; [6],1370 ng/mL
same,Tmax,"[1]; single oral dose 80 mg, fasted, healthy male subjects, median (min, max), read-out: Tmax",0.5 h
same,AUC(0-inf),[1]; [7],7010 ng·h/mL
same,Cmax,[1]; [7],1880 ng/mL
same,Tmax,"[1]; single oral dose 160 mg, fasted, healthy male subjects, median (min, max), read-out: Tmax",1.5 h
same,AUC(0-inf),[1]; [8],15400 ng·h/mL
same,Cmax,[1]; [8],3990 ng/mL
same,Tmax,"[1]; single oral dose 300 mg, fasted, healthy male subjects, median (min, max), read-out: Tmax",1.25 h
same,AUC(0-inf),[1]; [9],33300 ng·h/mL
same,Cmax,[1]; [9],7180 ng/mL
same,Tmax,"[1]; single oral dose 600 mg, fasted, healthy male subjects, median (min, max), read-out: Tmax",1.25 h
same,AUC(0-inf),[1]; [10],50200 ng·h/mL
same,Cmax,[1]; [10],10100 ng/mL
same,Tmax,"[1]; single oral dose 1000 mg, fasted, healthy male subjects, median (min, max), read-out: Tmax",1.5 h
same,half-life,"[1]; male, oral, single dose 20 to 1000 mg, read-out: terminal half-life (t½), range of means at the different dose levels",3.9 to 10.7 h
same,half-life,"[1]; male, oral, single dose 20 mg to 1000 mg, read-out: mean terminal half-life, range over the 7 dose levels",4.59 to 8.84 h
same,Tmax,"[1]; male, oral, single dose 20 mg to 1000 mg, read-out: median Tmax, range over dose levels",0.5 to 1.5 h
same,half-life,"[1]; male, po, 20 mg, single oral dose 20 mg, fasted, healthy male subjects, arithmetic mean, read-out: t1/2 (converted)",4.59 h
same,half-life,"[1]; male, po, 40 mg, single oral dose 40 mg, fasted, healthy male subjects, arithmetic mean, read-out: t1/2 (converted)",5.95 h
same,half-life,"[1]; male, po, 80 mg, single oral dose 80 mg, fasted, healthy male subjects, arithmetic mean, read-out: t1/2 (converted)",8.84 h
same,half-life,"[1]; male, po, 160 mg, single oral dose 160 mg, fasted, healthy male subjects, arithmetic mean, read-out: t1/2 (converted)",6.83 h
same,half-life,"[1]; male, po, 300 mg, single oral dose 300 mg, fasted, healthy male subjects, arithmetic mean, read-out: t1/2 (converted)",7.95 h
same,half-life,"[1]; male, po, 600 mg, single oral dose 600 mg, fasted, healthy male subjects, arithmetic mean, read-out: t1/2 (converted)",6.07 h
same,half-life,"[1]; male, po, 1000 mg, single oral dose 1000 mg, fasted, healthy male subjects, arithmetic mean, read-out: t1/2 (converted)",6.6 h
same,dose proportionality of Cmax,"[1]; single dose, dosing range 20 mg to 1000 mg",Dose proportionality was observed
same,dose proportionality of AUCs,"[1]; single dose, dosing range 300 mg to 1000 mg",Dose proportionality was observed
same,number of retinal ganglion cells by immunohistochemistry,[2],increase number of retinal ganglion cells
same,retinal function by electroretinography,[2],improving retinal function
same,thickness of the retina by H&E staining,[2],mitigating the reduction of thickness of the retina
same,safety and tolerability of the preferred dosage regimen,[3],especially safe and well tolerated
